Activity calls are given as the source filed them. The rule behind the calls is not given here.

The target in assay [1] is T1, Ornithine decarboxylase (Rattus norvegicus) (UniProt P09057).
T1 sequence (whole entry): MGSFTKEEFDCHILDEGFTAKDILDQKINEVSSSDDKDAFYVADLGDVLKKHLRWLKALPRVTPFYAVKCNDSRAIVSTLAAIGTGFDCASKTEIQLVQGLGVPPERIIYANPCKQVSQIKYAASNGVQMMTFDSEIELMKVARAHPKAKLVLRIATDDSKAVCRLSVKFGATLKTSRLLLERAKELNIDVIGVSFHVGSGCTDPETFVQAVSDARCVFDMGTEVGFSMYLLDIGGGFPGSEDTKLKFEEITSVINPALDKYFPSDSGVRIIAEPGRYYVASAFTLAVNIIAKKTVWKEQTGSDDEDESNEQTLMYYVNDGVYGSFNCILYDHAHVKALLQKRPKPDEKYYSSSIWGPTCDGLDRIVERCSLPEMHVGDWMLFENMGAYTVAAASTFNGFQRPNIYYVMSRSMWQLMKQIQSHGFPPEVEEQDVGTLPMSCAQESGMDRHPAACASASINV
As to the kind of experiment: Evaluated for inhibition of rat liver ornithine decarboxylase (ODC) at concentrations of 50 uM; No inhibition.

The target in assay [2] is T2, Diamine oxidase [copper-containing] (Rattus norvegicus, UniProt P36633).
T2 sequence (P36633 whole entry): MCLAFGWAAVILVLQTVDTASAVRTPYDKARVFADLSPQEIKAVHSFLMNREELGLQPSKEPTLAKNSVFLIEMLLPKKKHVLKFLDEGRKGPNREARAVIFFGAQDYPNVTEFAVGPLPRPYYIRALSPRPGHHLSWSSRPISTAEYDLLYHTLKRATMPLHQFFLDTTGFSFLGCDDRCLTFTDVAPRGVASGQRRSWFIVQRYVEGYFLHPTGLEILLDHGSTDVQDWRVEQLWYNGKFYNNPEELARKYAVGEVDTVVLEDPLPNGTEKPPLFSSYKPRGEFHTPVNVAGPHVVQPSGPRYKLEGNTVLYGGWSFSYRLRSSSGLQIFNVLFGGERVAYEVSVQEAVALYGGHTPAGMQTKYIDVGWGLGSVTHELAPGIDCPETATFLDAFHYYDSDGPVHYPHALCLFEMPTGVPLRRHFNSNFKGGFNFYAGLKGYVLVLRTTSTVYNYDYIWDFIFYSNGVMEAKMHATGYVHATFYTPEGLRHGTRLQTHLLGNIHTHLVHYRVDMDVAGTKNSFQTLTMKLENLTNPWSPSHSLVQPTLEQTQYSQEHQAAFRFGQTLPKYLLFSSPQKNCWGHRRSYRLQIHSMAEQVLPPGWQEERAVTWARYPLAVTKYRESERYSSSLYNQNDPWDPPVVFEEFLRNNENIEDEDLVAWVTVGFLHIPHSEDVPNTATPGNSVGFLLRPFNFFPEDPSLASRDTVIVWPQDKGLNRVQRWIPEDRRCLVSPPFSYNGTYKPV
As to the kind of experiment: In vitro inhibition of Diamine oxidase (DAO) from rat small intestine. Format: tissue-based.

A further assay deals with T-24. As to the kind of experiment: Antiproliferative activity against human T24 bladder carcinoma cells. Type of assay: functional, cell-based.
The target of assay [3] is T3, S-adenosylmethionine decarboxylase proenzyme (Rattus norvegicus, UniProt P17708).
T3 sequence (P17708 whole entry): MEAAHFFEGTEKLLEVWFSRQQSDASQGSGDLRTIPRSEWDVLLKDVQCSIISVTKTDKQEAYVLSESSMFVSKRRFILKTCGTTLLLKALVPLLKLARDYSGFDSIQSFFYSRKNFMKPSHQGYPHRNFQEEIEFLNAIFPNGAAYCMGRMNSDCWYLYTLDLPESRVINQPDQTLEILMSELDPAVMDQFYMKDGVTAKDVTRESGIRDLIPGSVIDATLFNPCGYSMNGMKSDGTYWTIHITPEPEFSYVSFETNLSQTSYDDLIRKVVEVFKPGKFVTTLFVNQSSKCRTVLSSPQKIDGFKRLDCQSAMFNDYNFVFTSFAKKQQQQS
The assay is described as follows: Inhibitory concentration of compound against S-Adenosyl-methionine decarboxylase (SAMDC) from rat liver.

On to `N=C(N)N/N=C/c1cccc(C(=N)NO)n1`, for which the inhibition result in assay [1] is “inactive”. For the same compound, the IC50 in assay [2] was over 100 µM; in the assay on T-24, over 119 µM; in assay [3], 25 µM.
For the compound `C/C(=N\N=C(N)N)c1cccc(C(=N)N)c1`, in assay [1], the inhibition entry was “inactive”. Further, the values for the IC50 (in assay [2]; in the assay on T-24; in assay [3]) were 2.7 µM, 118 µM and 0.066 µM, respectively.
Turning to `N=C(N)N/N=C/c1ccnc(C(=N)N)n1`, the inhibition result in assay [1] is “inactive”. Moreover, the IC50 in assay [2] is 8.05 µM; with T-24, over 168 µM; in assay [3], 0.53 µM.
For the compound `CC/C(=N\N=C(N)N)c1cccc(C(=N)N)c1`, the inhibition result in assay [1] was “inactive”. The IC50 in assay [2] was 15 µM; with T-24, over 152 µM; in assay [3] it was 0.088 µM.
On to `N=C(N)c1cccc(/C=N/N=C(\N)N/N=C/c2cccc(C(=N)N)c2)c1`, for which the inhibition result in assay [1] is “inactive”. In addition, the IC50 in assay [2] was 0.83 µM; in the assay with T-24, over 101 µM; in assay [3], 0.061 µM.
As to `N=C(NN)c1cccc(/C=N/N=C(N)N)n1`, the inhibition result in assay [1] is “inactive”. In addition, the IC50 in assay [2] came out at 19 µM; in the assay with T-24 it was 60.5 µM; in assay [3], 0.084 µM.
For `N=C(NN)N/N=C/c1cccc(C(=N)N)n1`, the inhibition entry in assay [1] was “inactive”. The IC50 in assay [2] was 1.66 µM; in the assay with T-24, 83.6 µM; in assay [3], 0.67 µM.
Take `N=C(N)c1cccc(-c2cccc(C(=N)N)n2)n1`: in assay [1], the inhibition entry was “inactive”. Further, the IC50 in assay [2] came out at 240 µM; with T-24, 1.1 µM; in assay [3], 0.006 µM.
Take `N=C(N)N/N=C/c1ccnc(C(=N)N)c1`: the inhibition result in assay [1] is “inactive”. For the same compound, the IC50 was 3.2 µM in assay [2], over 180 µM in the assay with T-24 and 0.33 µM in assay [3].
The like results for `CCCCNC(=N)N/N=C/c1cccc(C(=N)N)c1` were, in that order, “inactive”, 2.8 µM, over 26.8 µM and 0.16 µM.
With `N=C(N)N/N=C/c1cccc(C(N)=O)c1`, in assay [1], the inhibition entry was “inactive”. In addition, the IC50 in assay [2] was over 100 µM; with T-24, over 184 µM; in assay [3], 20 µM.
`CC(/C=N/NC(=N)N)=N\NC(=N)N` [MITOGUAZONE]: in assay [1], the inhibition entry is “inactive”. The values for the IC50 (in assay [2]; in the assay on T-24) were 1.5 µM and 1.1 µM, respectively.
Turning to `N=C(NO)N/N=C/c1cccc(C(=N)N)n1`, the inhibition result in assay [1] was “inactive”. The results for the half-inhibitory concentration (IC50) (in assay [2]; with T-24; in assay [3]) were 7.5 µM, 32.9 µM and 0.24 µM, respectively.
Turning to `N=C(NO)N/N=C/c1cccc(C(=N)N)c1`, the inhibition entry in assay [1] was “inactive”. The figures for the IC50 (in assay [2]; in the assay on T-24; in assay [3]) were 20 µM, 14.1 µM and 0.092 µM, respectively.
For `N=C(NN)N/N=C/c1cccc(C(=N)N)c1` the same measures were “inactive”, 0.87 µM, 25 µM and 0.21 µM.
As to `N=C(N)N/N=C/c1nccc(C(=N)N)n1`, the inhibition result in assay [1] is “inactive”. Moreover, the IC50 in assay [2] is 3.4 µM; in the assay on T-24 it was over 126 µM; in assay [3], 11 µM.
As to `N=C(N)N/N=C/c1cccc(C(=N)N)c1`, in assay [1], the inhibition entry is “inactive”. The IC50 in assay [2] was 5.6 µM; with T-24 it was 9.1 µM; in assay [3] it was 0.036 µM.
The like results for `N=C(N)c1cc(-c2ccnc(C(=N)N)c2)ccn1` were, in that order, “inactive”, 12.9 µM, over 151 µM and 0.18 µM.
The like results for `N=C(N/N=C/c1cccc(C(=N)N)n1)N/N=C/c1cccc(C(=N)N)n1` were, in that order, “inactive”, 0.76 µM, 49.8 µM and 0.12 µM.
Regarding `N=C(N)c1cccc(-c2cccc(C(=N)N)c2)c1`, the inhibition result in assay [1] was “inactive”. Also, the figures for the IC50 (in the assay on T-24; in assay [3]) were over 160 µM and 0.6 µM, respectively.
As to `CCCCNC(=N)c1cccc(/C=N/N=C(N)N)c1`, the inhibition result in assay [1] was “inactive”. The 50% inhibitory concentration (IC50) was 5 µM in assay [2], over 28.5 µM in the assay with T-24 and over 50 µM in assay [3].
The like results for `N=C(N)N/N=C/c1cccc(C(=N)N)n1` were, in that order, “inactive”, 0.87 µM, 10.1 µM and 0.09 µM.
Consider `N=C(N)c1cccc(-c2ccnc(C(=N)N)n2)c1`, for which the inhibition entry in assay [1] was “inactive”. Besides, the IC50 worked out at 10 µM in assay [2], 68.2 µM with T-24 and 0.006 µM in assay [3].
Turning to `N=C(N)c1ccnc(-c2cc(C(=N)N)ccn2)c1`, the inhibition result in assay [1] was “inactive”. Besides, the results for the IC50 (with T-24; in assay [3]) were over 143 µM and 3.1 µM, respectively.

As a reminder, the IC50 is the concentration needed to halve the response being measured. High values mean a need for much substance, low ones inhibition by little substance.

The values are drawn from ChEMBL document CHEMBL1126674, “S-adenosylmethionine decarboxylase inhibitors: new aryl and heteroaryl analogues of methylglyoxal bis(guanylhydrazone)” (J Med Chem, 1993).
